From the OPERA property sets (Mansouri et al. 2018)
Peptide text beside a SMILES is read from it. * marks the point of attachment. NHtBu = CC(C)(C)N*

SMILES | logP
COCCOCC1COC(c2ccc(Cl)cc2Cl)(n2cncn2)O1 (stereo unspecified) | 2.03
COCC(O)Cn1cnc([N+](=O)[O-])n1 (stereo unspecified) | -0.49
Cc1cc(Cl)ccc1O | 2.78
O=C(O)c1ccccc1Nc1cccc(C(F)(F)F)c1 | 5.25
CCOC(=O)C(=Cc1ccc(Br)cc1)C(=O)OCC | 4.02
CC(=O)Oc1cccc(F)c1 | 1.74
CCCCCCOC(=O)n1cnc(C)c1CSCCNC(=NC#N)NC | 3.1
CC(=O)C=Cc1ccccc1 | 2.07
CCCCCNc1nc(NCC)nc(SC(F)F)n1 | 4.71
CCNc1nc(NC(C)(C)C)nc(SC)n1 | 3.74
c1ccc2sccc2c1 | 3.12
CCOC(=O)C(=Cc1ccc(F)cc1)C(=O)OCC | 3.1
CC(C)Cc1cc(C(=O)NN)ccn1 | 1.02
CC(=O)NN | -1.58
Cc1ccc(CO)cc1 | 1.58
CC1Nc2cc(Cl)c(S(N)(=O)=O)cc2S(=O)(=O)N1 (stereo unspecified) | 0.08
O=[N+]([O-])c1cn[nH]c1 | 0.59
CNC(=O)Oc1ccccc1C | 1.46
NC(=O)C(c1ccccc1)c1ccccn1 (stereo unspecified) | 0.83
CC(=O)Nc1ncccn1 | -0.75
CNC1=CC(=O)C(NC)=CC1=O | 0.34
Cn1c(N)nc2ccc(C#N)cc21 | 1.29
CN1CCCCC1 | 1.3
O=C(O)CCCCN1C(=O)C=CC1=O | 0.6

SMILES | logP
NNC(=O)c1ccnc(Br)c1 | 0.25
COc1cc2c(c(OC)c1OC)-c1ccc(=O)c(OC)cc1C(NC(C)=O)CC2 (stereo unspecified) | 1
O=C(O)Cc1ccc(C(F)(F)F)cc1 | 2.45
COc1c(O)cc2c(c1OC)-c1ccc(SC)c(=O)cc1C(NC(=O)C(F)(F)F)CC2 (stereo unspecified) | 2.61
O=[N+]([O-])c1cccnc1 | 0.6
Cc1ccc(O)c2ncccc12 | 2.37
COCCO | -0.77
CCCCOC(=O)N(C)SN(C)C(=O)Oc1cccc2c1OC(C)(C)C2 | 4.7
CC(=S)N(c1ccccc1)c1ccccc1 | 2.83
CC(=O)Nc1ccc(C(=O)O)cc1 | 1.31
CC(C)(O)C(C(=O)O)c1ccc(-c2ccccc2)cc1 (stereo unspecified) | 3.25
CC(C)C(C#N)c1ccccc1 (stereo unspecified) | 2.33
CCCCCCCCCCNC(=O)c1[nH]nc(C)c1[N+](=O)[O-] | 4.48
O=C(O)CCc1ccccc1 | 1.84
COC(=O)Cn1ccnc1[N+](=O)[O-] | -0.09
CC(=O)Nc1ccc2ncccc2c1 | 1.55
CCC(C)C(NC(=O)C(CCC(=O)O)NC(C)=O)C(=O)NC(Cc1ccccc1)C(N)=O (stereo not drawn) (Ac-Glu-Ile-Phe-NH2; configuration not given here) | 0.43
Oc1cc(Cl)c(Cl)cc1Cl | 3.72
O=C(O)C1CCCCC1 | 1.96
CC(C)NCc1cccnc1 | 0.82
Nc1cccc([N+](=O)[O-])c1 | 1.37
O=Cc1ccc2ccccc2n1 | 2.14
O=C(O)COc1cccc(-c2ccccc2)c1 | 3.18
CON(C)C(=O)Nc1ccc(Cl)c(Cl)c1 | 3.2

SMILES | logP
N#Cc1cnc2ccccc2c1 | 1.57
CN1CCN(C2=Nc3cc(Cl)ccc3Nc3ccccc32)CC1 | 3.23
FC1(F)C(F)(F)C(F)(F)C(F)(F)C(F)(F)C1(F)F | 2.91
O=C(Nc1ccc(Cl)c(Cl)c1)C1CC1 | 3.83
CCOC(C)OCC | 0.84
Cc1cc2c(cc1C)C(=O)C=CC2=O | 2.49
CCN(N=O)C(=O)Nc1ccccc1 | 2.25
O=S1(=O)C=Cc2ccccc21 | 0.88
OCc1cccc(O)c1 | 0.49
Nc1ccc2ccccc2c1 | 2.28
CCC1(c2ccccc2)CCC(=O)NC1=O (stereo unspecified) | 1.9
CN1CCN(CC(=O)N/N=C/c2ccc([N+](=O)[O-])o2)CC1 | -0.1
C[Si](C)(C)c1ccc(O)cc1 | 3.84
CC(=O)c1ccc(OCC(=O)O)cc1 | 0.87
O=C(NC(CO)C(O)c1ccc([N+](=O)[O-])cc1)C(Br)Br (stereo unspecified) | 1.36
OCc1cccnc1 | -0.02
COc1cc(NS(=O)(=O)c2ccc(N)cc2)nc(C)n1 | 0.61
CC(=O)C(=Cc1ccccc1Cl)C(C)=O | 2.19
CC12CCC(=O)C=C1CCC1C2C(O)CC2(C)C1CCC2(O)C(=O)COC(=O)CCCCCC(N)=O (stereo unspecified) | 2.3
Nc1ccccc1N | 0.15
CNC(=O)Oc1cc(C)c(SC)c(C)c1 | 2.92
O=C(Nc1ccccc1)c1ccccc1O | 3.27
COCC(C)OC (stereo unspecified) | -0.09
CCOC(=O)C(=O)c1cccs1 | 1.77

SMILES | logP
COC(=O)C(Cc1ccccc1)NC(C)=O (stereo unspecified) | 0.92
CCOc1cccnc1 | 1.44
O=C1CN(N=Cc2ccc([N+](=O)[O-])o2)C(=O)N1 | -0.47
Clc1cc2ccccc2cc1Cl | 4.42
Nc1ccc(Cl)c([N+](=O)[O-])c1 | 2.06
CN(C)C#N | -0.15
CNS(=O)(=O)c1ccc(S(I)=C(N(C)C)N(C)C)cc1 (stereo unspecified) | -1.4
CC(=O)Cc1ccccc1 | 1.44
Cc1ccccc1C | 3.12
Oc1ccccc1O | 0.88
NC(=O)CCCCc1ccccn1 | 0.38
C=C1C(=O)OC2CC(C)C3C=CC(=O)C3(C)C(OC(=O)CC(=O)OC3C4C(=C)C(=O)OC4CC(C)C4C=CC(=O)C43C)C12 (stereo unspecified) | 1.33
Nc1ccc(S(=O)(=O)Nc2ncccn2)cc1 | -0.09
CC(C)c1ccc([N+](=O)[O-])cc1 | 3.45
CCCCC(C)=O | 1.38
COc1cccc(CC(=O)O)c1 | 1.5
Nc1c2ccccc2nc2ccccc12 | 2.74
Cc1cc(C)nc(C)c1 | 1.88
CCCOP(=O)(OCCC)OCCC | 1.87
CNc1c(Cl)cccc1Cl | 2.91
Brc1ccc(-c2ccc(Br)cc2)cc1 | 5.72
NC(=O)C(Cl)(Cl)Cl | 1.04
CC12CCC3C(CCC4CC(=O)CCC43C)C1CCC2=O (stereo unspecified) | 3.6
CC1=NOC(=O)C1=NNc1ccccc1Cl | 2.6

SMILES | logP
CCOC(=O)c1ccccc1N | 2.57
CCC(C)C(NC(C)=O)C(=O)NC(Cc1ccccc1)C(=O)NC(C)C(N)=O (stereo not drawn) (Ac-Ile-Phe-Ala-NH2; configuration not given here) | 0.52
ClCBr | 1.41
CNC(=O)Oc1ccc(SC)cc1 | 1.92
COc1ccc2[nH]ccc2c1 | 2.06
c1ccc(N(c2ccccc2)c2ccccc2)cc1 | 5.74
c1cnc2ncncc2n1 | -0.58
COc1cc(Cl)cc(Cl)c1 | 3.8
Cc1cc2[nH]c(=O)c(=O)[nH]c2cc1C | 1.34
O=C(O)c1ccccc1O | 2.26
CCOP(=S)(OCC)Oc1cc(C)nc(N(CC)CC)n1 | 4.85
CCCCNc1nc(NC(C)C)nc(SC(F)F)n1 | 4.75
CC(C)(C)c1ccccn1 | 2.4
FC(Cl)Cl | 1.55
CCCC(N)Cc1ccccc1 (stereo unspecified) | 2.79
COC(=O)Cn1cnc([N+](=O)[O-])n1 | -0.38
CCN(CC)CC(=O)NC1CCc2ccccc21 (stereo unspecified) | 2.74
CC(=O)Nc1ccc(F)cc1 | 1.47
O=C(O)COc1ccc(Cl)cc1 | 2.25
Nc1ncc([N+](=O)[O-])s1 | 0.83
C=CCN1CC[C@]23c4c5ccc(O)c4O[C@H]2[C@@H](O)C=C[C@H]3[C@H]1C5 | 1.86
Nc1ccnc2ccccc12 | 1.63
O=C(NCC(O)CO)c1c(I)c(N(CCO)C(=O)CO)c(I)c(N(CCO)C(=O)CO)c1I (stereo unspecified) | -2.55
NC(=O)CCCCc1cccnc1 | 0.4

SMILES | logP
CCc1ccco1 | 2.4
CNC(=O)OC | -0.06
CCOP(=O)(N=C1SCC(C)S1)OCC (stereo unspecified) | 1.04
Cc1ccccc1C=C[N+](=O)[O-] | 2.63
CN(C)C(N(C)C)=S(I)c1ccccc1[N+](=O)[O-] (stereo unspecified) | -0.92
N#Cc1ccc(S(N)(=O)=O)cc1 | 0.23
CC(=O)Nc1cccc(C(C)=O)c1 | 1.06
CN(C)C(=O)OCc1ccc(OC(=O)N(C)C)cc1 | 1.59
c1ccc2nnccc2c1 | 0.93
NCCCCc1ccncc1 | 0.86
OCC1OC(n2cnc3c(S)ncnc32)C(O)C1O (stereo unspecified) | -0.6
Cc1cscn1 | 0.97
Cc1ccc(OCC(=O)NNC(C)C)cc1 | 1.81
CNC(=O)Oc1ccc(C(C)C)cc1 | 2.57
O=C(O)COc1ccc(Cl)c(I)c1 | 3.1
C1CO1 | -0.3
COC(OC)OC | 0.25
[O-][n+]1cccc(O)c1 | -0.61
CC(=O)NC(C)C(=O)NC(Cc1c[nH]c2ccccc12)C(=O)NC(C)C(=O)NC(C)(C)C (stereo not drawn) (Ac-Ala-Trp-Ala-NHtBu; configuration not given here) | 1.26
CCCCC(C#N)(Cn1ccnc1)c1ccccc1 (stereo unspecified) | 2.94
CC(=O)NCC(=O)N[C@@H](C)C(=O)N[C@H](C(N)=O)C(C)C (Ac-Gly-Ala-Val-NH2) | -1.56
CC(=O)Oc1cccc(O)c1 | 1.23
CCCBr | 2.1
Clc1cccc(Cl)c1 | 3.53

SMILES | logP
CC1CCCC(C)N1N=O (stereo unspecified) | 1.36
Cc1ccc(O)c(O)c1 | 1.37
CC(C)[C@H](C(=O)OC(C#N)c1cccc(Oc2ccccc2)c1)c1ccc(OC(F)F)cc1 (stereo partly specified) | 6.2
Clc1cc(Cl)c(Cl)c(Cl)c1Cl | 5.17
Brc1cccc(Br)c1 | 3.75
c1ccc(Cc2cc(-c3ccccc3)nnc2NCCN2CCOCC2)cc1 | 3.65
CON(C)C(=O)Nc1ccc(N)cc1 | -0.16
O=C(O)c1ccncc1 | 0.32
OCC1OC(Oc2ccc(Cl)cc2)C(O)C(O)C1O (stereo unspecified) | 0.26
C=CCCBr | 2.53
CCCCCCC1(c2ccncc2)CCC(=O)NC1=O (stereo unspecified) | 2.94
CC(=O)c1cccc(F)c1 | 1.77
c1ccc2oncc2c1 | 1.63
CCCC(N)=O | -0.21
CCN(CC)CCNC(=O)c1ccccc1 | 1.99
CCOC(=O)CCl | 0.94
O=c1oc2ccccc2c(O)c1Cc1c(O)c2ccccc2oc1=O | 2.07
CNc1ccccc1 | 1.66
NS(=O)(=O)c1nc2ccccc2s1 | 1.33
Cc1cc(=O)cc(C)o1 | 0.1
CCSCC | 1.95
CC(C)(c1ccc(O)cc1)c1ccc(O)cc1 | 3.32
